In test [1] the target is T1, SMOX (Homo sapiens (Human), UniProt Q9NWM0). Briefly: Human SMOX assay (HyPerBlu chemiluminescent detection of hydrogen peroxide). Type of test: biochemical. Particulars: 2.5 nM full length hSMOX, spermine substrate, 1 h at room temperature, luminescence read; read-out: SMOx_IC50. In a few lines:
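Full-length N-His human SMOX (2.5 nM, E. coli-expressed) was incubated 1 h at room temperature with 30 µM spermine, 11-point compound dilutions and 1.25% DMSO in pH 7.4 HEPES/NaCl/EGTA buffer. H2O2 was detected by HyPerBlu chemiluminescence after 30 min, and IC50 came from dose–response fits.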

The target of test [2] is hPAOX (Homo sapiens (Human), UniProt Q6QHF9). Briefly: Human PAOX assay (HyPerBlu chemiluminescent detection of hydrogen peroxide). It is filed as biochemical. As to conditions: 60 pM recombinant PAOX, 20 μM N-acetylspermine substrate. The method in brief: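 His-tagged recombinant PAOX expressed in sf9 insect cells was used at 60 pM, with 20 μM N-acetylspermine as substrate. Hydrogen peroxide formed by the reaction was detected by chemiluminescence from a boronate probe (HyPerBlu). Inhibition appears as lower luminescence.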
hPAOX, sequence (Q6QHF9 whole entry): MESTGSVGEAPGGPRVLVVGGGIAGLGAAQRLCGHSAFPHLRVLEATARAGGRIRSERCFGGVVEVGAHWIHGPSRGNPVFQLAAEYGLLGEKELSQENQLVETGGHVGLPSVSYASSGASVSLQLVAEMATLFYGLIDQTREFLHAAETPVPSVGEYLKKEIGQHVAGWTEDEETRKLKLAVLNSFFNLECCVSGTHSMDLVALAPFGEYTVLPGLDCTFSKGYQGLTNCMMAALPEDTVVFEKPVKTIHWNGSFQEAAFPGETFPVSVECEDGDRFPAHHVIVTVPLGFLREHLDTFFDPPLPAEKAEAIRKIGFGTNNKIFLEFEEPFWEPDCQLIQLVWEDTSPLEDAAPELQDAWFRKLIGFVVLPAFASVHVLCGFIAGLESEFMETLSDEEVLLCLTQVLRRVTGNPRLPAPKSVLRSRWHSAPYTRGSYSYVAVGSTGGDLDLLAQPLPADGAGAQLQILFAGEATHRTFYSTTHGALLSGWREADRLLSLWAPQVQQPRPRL

The target in test [3] is T1, SMOX. Put plainly: Cellular Thermal Shift Assay (CETSA) with alphaLISA detection of intact SMOX in A549 cells. It is filed as cell-based. As to conditions: 1 hour compound incubation at 37° C., heated to 55° C. for 5 minutes. From the text: The Cellular Thermal Shift Assay (CETSA) is a biophysical assay based on the principle of ligand-induced thermal stabilization of target proteins, meaning that a protein denaturing temperature will change upon ligand interaction. Thus, by heating samples (i.e. cells, ex vivo samples) to different temperatures, and quantifying conformationally intact proteins we can detect compound-protein interactions after compound treatment. CETSA allows direct monitoring of ligand binding to a specific target (target engagement). In our study, we have developed a suitable detection system that will detect intact SMOX using the alphaLISA. […] The detection of compound -SMOX ligand binding is performed using A549 cells. This adenocarcinoma human alveolar basal epithelial cell line expresses high levels of SMOX. Their use has been widely reported in the literature with respect to the investigation of the SMOX pathway. Using SMOX high-expressing cells with CETSA and alphaLISA systems provides the optimal platform for screening small molecules for SMOX inhibition.
A549 cells were seeded at a density of 0.05-0.1×10^6 cells/mL in T175 flasks and cultured in 25 mL of culture medium consisting in RPMI 1640 medium (Gibco) supplemented with 10% fetal bovine serum (Gibco). Cells were passaged twice per week and used for CETSA assays before reaching confluency. One day prior to the CETSA cells were seeded in 384-well white assay plates (Corning) at 15000 cells per well. Briefly, cells were washed with PBS (Life Technologies Europe BV) and dissociated by adding 2 mL TrypLE™ Select (Life Technologies Europe BV). After 5 min at 37° C., cells were resuspended in culture medium, counted using a ViCell XR cell counter (ViCell) and seeded in the 384-well plates.
Compounds were pre-diluted in PBS to a final concentration of […] and 1% DMSO and serially diluted in PBS 1% DMSO. For compound-cell incubation, medium in the 384 well plates was replaced with 30 μL of serially diluted compounds. After incubation at 37° C. for 1 hour the liquid was removed and plates were heated to 55° C. for 5 minutes and then transferred to ice for 5 minutes. After the cooling step, cells were lysed by adding 15 μL 1× alphaLISA-buffer (Perkin Elmer) containing anti-SMOX monoclonal antibody #2 and anti-SMOX Fab-fragment #33 mixture at a concentration of 5 and 0.5 nM respectively. After one hour at RT, 5 μL anti-6×His alphaLISA acceptor beads (50 mg/L, AL128C, Perkin Elmer) were added to the wells followed by an additional incubation of one hour at RT. Then 5 μL anti-rabbit IgG alpha donor beads (200 mg/L was added to the wells. After one hour incubation at RT the alpha signal was read using an alpha compatible reader. MDL75257 (M2949, Sigma) was used as positive control for compound-SMOX interaction. Compound-SMOX interaction is detected through the comparison of the high alpha signal of the negative control with the much lower signal of the wells that contain SMOX binding compounds.
For orientation: Alpha assays give light when donor and acceptor beads are brought close together.

For test [4] the following is noted: animal cancer models; cited from earlier work.
For test [5] the following is noted: associated disease models; cited from earlier work.

Structures are written as SMILES.

T1 sequence (Q9NWM0 whole entry): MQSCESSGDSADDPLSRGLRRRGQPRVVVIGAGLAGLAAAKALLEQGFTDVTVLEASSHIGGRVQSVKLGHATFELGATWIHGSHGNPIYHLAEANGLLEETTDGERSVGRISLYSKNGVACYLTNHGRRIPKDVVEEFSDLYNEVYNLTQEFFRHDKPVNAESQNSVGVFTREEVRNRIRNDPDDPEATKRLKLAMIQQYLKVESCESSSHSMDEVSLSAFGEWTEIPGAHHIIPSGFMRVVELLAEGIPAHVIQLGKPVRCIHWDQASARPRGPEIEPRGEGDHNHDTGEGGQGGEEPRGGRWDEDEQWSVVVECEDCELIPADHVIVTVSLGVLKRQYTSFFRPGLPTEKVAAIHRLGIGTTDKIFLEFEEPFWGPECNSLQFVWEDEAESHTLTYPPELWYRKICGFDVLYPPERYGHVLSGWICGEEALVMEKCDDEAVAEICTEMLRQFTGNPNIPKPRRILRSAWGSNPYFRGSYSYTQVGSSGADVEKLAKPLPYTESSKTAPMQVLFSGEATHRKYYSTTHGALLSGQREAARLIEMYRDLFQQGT

`N#Cc1ccc(-c2cc(-c3ccccc3)nc3cc(C(=O)NCCCn4ccnc4)nn23)cc1` [Example 90, N-(3-(1H-imidazol-1-yl)propyl)-7-(4-cyanophenyl)-5-phenylpyrazolo[1,5-a]pyrimidine-2-carboxamide]: the IC50 in test [1] was 78 nM; in test [2], 1610 nM. Further, the “SMOx % recovery CETSA” value in test [3] is 3%.

For `O=C(NCCCn1ccnc1)c1cc2nc(-c3ccccc3)cc(-c3ccccn3)n2n1` [Example 91, N-(3-(1H-imidazol-1-yl)propyl)-5-phenyl-7-(pyridin-2-yl)pyrazolo[1,5-a]pyrimidine-2-carboxamide], the IC50 in test [1] is 43 nM; in test [2], 2050 nM. Besides, in test [3], the “SMOx % recovery CETSA” value is recorded as 111%.

`CN1CC(NC(=O)c2cc3nc(-c4ccccc4)cc(-c4ccccn4)n3n2)C1` [Example 92, N-(1-methylazetidin-3-yl)-5-phenyl-7-(pyridin-2-yl)pyrazolo[1,5-a]pyrimidine-2-carboxamide]: the IC50 in test [1] is 239 nM; in test [2], 520 nM. Further, the “SMOx % recovery CETSA” value in test [3] is given as 20%.

Regarding `O=C(NCCCn1ccnc1)c1cc2nc(-c3ccccc3)cc(C3CCCCC3)n2n1` [Example 107, N-(3-(1H-imidazol-1-yl)propyl)-7-cyclohexyl-5-phenylpyrazolo[1,5-a]pyrimidine-2-carboxamide], the IC50 in test [1] was found to be 22 nM; in test [2], 1270 nM. Also, the “SMOx % recovery CETSA” value in test [3] stood at 24%.

For `O=C(NCCCn1ccnc1)c1cc2nc(-c3ccccc3)cc(C3CCCCO3)n2n1` (centres unmarked) [Example 111, N-(3-(1H-imidazol-1-yl)propyl)-5-phenyl-7-(tetrahydro-2H-pyran-2-yl)pyrazolo[1,5-a]pyrimidine-2-carboxamide], the IC50 in test [1] is 58 nM; in test [2], 2920 nM. Also, the “SMOx % recovery CETSA” value in test [3] worked out at 52%.

Regarding `C=C=CCNCCCCNCC=C=C.Cl.Cl` [MDL 72527, N^1,N^4-di-2,3-butadienyl-1,4-butanediamine dihydrochloride], the cancer incidence result in test [4] is “significantly reduced cancer incidence”. Moreover, the “neuronal death and retinal degeneration” value in test [5] was “reduced neuronal death and retinal degeneration”.

The values are drawn from patent US20250161307A1, “PYRAZOLOPYRIMIDINES AS MODULATORS OF SPERMINE OXIDASE” (Janssen Pharmaceutica NV, priority 2022, published 2025).
